Measurements as given in paper PMC4865823, “Plant phosphomannose isomerase as a selectable marker for rice transformation” (Scientific Reports, 2016).

System: T1, OsPMI2 (GST-OsPMI2)
T1 construct: full CDS, N-terminal GST tag kept, E. coli Rosetta (DE3) pLysS; denatured from inclusion bodies and recovered
Assay: PGI/G6PDH-coupled assay, NADP reduction at […] nm, Lineweaver-Burk
Type: biochemical, Oryza sativa subsp. japonica
Details: 50 mM Tris-HCl pH 7.5, 30 °C; M-6-P to F-6-P; enzyme recovered from denatured inclusion bodies

Km: 6.462 ± 0.0479 mM
SMILES: O=P(O)(O)OC[C@H]1OC(O)[C@@H](O)[C@@H](O)[C@@H]1O (stereo partly shown) [mannose-6-phosphate]
